Reference: patent US11980612B2, “Synergistic anti-inflammatory compositions” (The Procter & Gamble Company, priority 2020, dated 2024)
Where “and” joins values, the source holds several entries; their conditions need not be identical. Equal values may be shown once.

test system: not given; assay: not given; conditions: general statement, no method; cited from earlier work

Compound | solubility in water
CO/C=C(/C(=O)OC)c1ccccc1Oc1cc(Oc2ccccc2C#N)ncn1 [azoxystrobin] | low solubility in water

test system: PGE2 release from TERT keratinocytes (tKC); assay: PGE2 assay: inhibition of PGE2 release from UVB-stressed TERT keratinocytes, normalized to ATP; format: cell-based, human; conditions: strobilurin 1 × 10−7 w/v %; PO 1 × 10−7 w/v %; strobilurin:PO ratio 1:1; actives alone or combination (observed); 15 mJ/cm2 UVB, 18-24 hours
Text: Inhibiting the Cell's Inflammation Response to a Stressor-Prostaglandin E2 (“PGE2”) Assay.
PGE2 is a hormone-like substance that is known to participate in modulation of inflammation. Cellular inflammation is associated with a variety of hair, skin and scalp conditions, and thus inhibiting PGE2 activation vis-à-vis cellular inflammation may help treat these types of hair, skin and scalp conditions.
TERT keratinocytes (“tKC” are human keratinocytes which have been transfected with the human telomerase reverse transcriptase gene to immortalize the cells) were obtained from Jerry Shay, University of Texas, Southwestern and plated at 40,000 cells/well into 24-well plates in 1 ml/well volume. EpiLife Medium (Life Technologies cat #MEPICFPRF500) supplemented with keratinocyte growth supplement (Life technologies cat #S-001-5) was used as the assay media. The cells were grown to confluence/near confluence, (typically 24 hours after plating 40,000 cells/well in 24 well plate) and then subjected to 15 mJ/cm^2 UVB-stress (typically […] in BioSun). The test compositions (strobilurins, piroctone olamine, strobilurins+piroctone olamine, and positive control 10 uM idebenone) were added to replace the medium (EpiLife Medium with 0.1% final concentration of DMSO—briefly, 1000× stocks of actives and combinations made in 100% DMSO and diluted into Epilife media 1 to 1000), and the plates were incubated for 18-24 hours.
The supernatant is removed from each well, and the cells are rinsed with 2 ml/well medium (without supplements). A Cell Titer-Glo assay (Promega cat #G7571; Madison WI) is used to measure ATP activity, is conducted on the cells for normalization. The supernatant is tested in a PGE2 assay (Prostaglandin E2 Assay kit from Cisbio Bioassays cat #62P2APEB) according to the manufacturer's instructions. The PGE2 results are normalized to ATP activity. The PGE2 quantitation (pg/mL) from the supernatant is divided by the normalization factor (treatment ATP/control ATP).
Example Calculation to Compute PGE2 Inhibition by Strobilurin: • Luminescence of vehicle control in ATP assay=704567 • Luminescence of strobilurin treatment in ATP assay=678903 • Normalization factor for strobilurin treatment=1.038 • PGE2 quantitation for vehicle control=2458 pg/mL PGE2 • PGE2 quantitation for strobilurin treatment=2347 pg/mL PGE2 • Normalized PGE2 values • control=2458/1=2458 • strobilurin=2347/1.038=2261 • % inhibition for strobilurin=[100×(2458−[…])/2458]=8%
Student's T-Test (equal variance, 2 sided) are used to calculate p-values between observed combinations and expected combinations with p-value<0.05 considered statistically significant. Expected combination values are calculated by adding the PGE2 inhibition values of strobilurins alone and piroctone olamine alone. Synergy factor is simply the ratio of observed combination/expected combination. Synergy factors greater than 1.0 with a p-value<0.05 are deemed synergistic.

Compound | % PGE2 Inhibition
Cc1cc(CC(C)CC(C)(C)C)n(O)c(=O)c1.NCCO (stereo not drawn) [PO, piroctone olamine] | 3.2%
CO/C=C(/C(=O)OC)c1ccccc1Oc1cc(Oc2ccccc2C#N)ncn1 [azoxystrobin] | 8%
CNC(=O)/C(=N/OC)c1ccccc1COc1cc(C)ccc1C [dimoxystrobin] | 18.9%
CO/N=C(/C1=NOCCO1)c1ccccc1Oc1ncnc(Oc2ccccc2Cl)c1F [fluoxastrobin] | 5.6%
CO/N=C(/C(=O)OC)c1ccccc1COc1ccccc1C [kresoxim methyl] | 4.1%
CNC(=O)/C(=N/OC)c1ccccc1CO/N=C(C)/C(=N/OC)C(/C)=N/OC [orysastrobin] | 8.2%
CO/C=C(/C(=O)OC)c1ccccc1COc1cccc(C(F)(F)F)n1 [picoxystrobin] | 2.5%
CON=C(C(=O)OC)c1ccccc1CON=C(C)c1cccc(C(F)(F)F)c1 [trifloxystrobin] | 3.2%

same assay, conditions: strobilurin 1 × 10−8 w/v %; PO 1 × 10−7 w/v %; strobilurin:PO ratio 1:10; actives alone or combination (observed); 15 mJ/cm2 UVB, 18-24 hours

Compound | % PGE2 Inhibition
Cc1cc(CC(C)CC(C)(C)C)n(O)c(=O)c1.NCCO (stereo not drawn) [PO, piroctone olamine] | 2.6%
CO/C=C(/C(=O)OC)c1ccccc1Oc1cc(Oc2ccccc2C#N)ncn1 [azoxystrobin] | 1%
CNC(=O)/C(=N/OC)c1ccccc1COc1cc(C)ccc1C [dimoxystrobin] | 7.6%
CO/N=C(/C1=NOCCO1)c1ccccc1Oc1ncnc(Oc2ccccc2Cl)c1F [fluoxastrobin] | 3.3%
CO/N=C(/C(=O)OC)c1ccccc1COc1ccccc1C [kresoxim methyl] | 7.3%
CNC(=O)/C(=N/OC)c1ccccc1CO/N=C(C)/C(=N/OC)C(/C)=N/OC [orysastrobin] | 15.6%
CO/C=C(/C(=O)OC)c1ccccc1COc1cccc(C(F)(F)F)n1 [picoxystrobin] | 8.4%
CON=C(C(=O)OC)c1ccccc1CON=C(C)c1cccc(C(F)(F)F)c1 [trifloxystrobin] | 0.5%

same assay, conditions: strobilurin 1 × 10−9 w/v %; PO 1 × 10−7 w/v %; strobilurin:PO ratio 1:50; actives alone or combination (observed); 15 mJ/cm2 UVB, 18-24 hours

Compound | % PGE2 Inhibition
Cc1cc(CC(C)CC(C)(C)C)n(O)c(=O)c1.NCCO (stereo not drawn) [PO, piroctone olamine] | 2.4%
CO/C=C(/C(=O)OC)c1ccccc1Oc1cc(Oc2ccccc2C#N)ncn1 [azoxystrobin] | 1%
CNC(=O)/C(=N/OC)c1ccccc1COc1cc(C)ccc1C [dimoxystrobin] | 4.1%
CO/N=C(/C1=NOCCO1)c1ccccc1Oc1ncnc(Oc2ccccc2Cl)c1F [fluoxastrobin] | 1%
CO/N=C(/C(=O)OC)c1ccccc1COc1ccccc1C [kresoxim methyl] | 3.2%
CNC(=O)/C(=N/OC)c1ccccc1CO/N=C(C)/C(=N/OC)C(/C)=N/OC [orysastrobin] | 1.1%
CO/C=C(/C(=O)OC)c1ccccc1COc1cccc(C(F)(F)F)n1 [picoxystrobin] | 8.9%
CON=C(C(=O)OC)c1ccccc1CON=C(C)c1cccc(C(F)(F)F)c1 [trifloxystrobin] | 0.7%

same assay, conditions: strobilurin 4 × 10−7 w/v %; PO 1 × 10−7 w/v %; strobilurin:PO ratio 4:1; actives alone or combination (observed); 15 mJ/cm2 UVB, 18-24 hours

Compound | % PGE2 Inhibition
Cc1cc(CC(C)CC(C)(C)C)n(O)c(=O)c1.NCCO (stereo not drawn) [PO, piroctone olamine] | 2.8% and 2.2%
CO/C=C(/C(=O)OC)c1ccccc1Oc1cc(Oc2ccccc2C#N)ncn1 [azoxystrobin] | 13%
CNC(=O)/C(=N/OC)c1ccccc1COc1cc(C)ccc1C [dimoxystrobin] | 12.4%
CO/N=C(/C1=NOCCO1)c1ccccc1Oc1ncnc(Oc2ccccc2Cl)c1F [fluoxastrobin] | 8.6%
CO/N=C(/C(=O)OC)c1ccccc1COc1ccccc1C [kresoxim methyl] | 6.7%
CNC(=O)/C(=N/OC)c1ccccc1CO/N=C(C)/C(=N/OC)C(/C)=N/OC [orysastrobin] | 4.7%
CO/C=C(/C(=O)OC)c1ccccc1COc1cccc(C(F)(F)F)n1 [picoxystrobin] | 16.7%
CON=C(C(=O)OC)c1ccccc1CON=C(C)c1cccc(C(F)(F)F)c1 [trifloxystrobin] | 8.3%
